Source: ChEMBL document CHEMBL1201862, “PubChem BioAssay data set” (2004)
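Method: 48-hour compound exposure of cells in 96-well plates, five concentrations, linear interpolation of endpoints. Abbreviation: GI50, concentration required for 50% inhibition of growth.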 Activity calls are given as the source filed them. Rule as the data show it: active = GI50 up to about 1.1 µM and inactive = higher.

Experiments:
Test in all cases: DTP human tumour cell line panel, 48 h
CAKI-1 = system: CAKI-1
EKVX = system: EKVX
HCT-116 = system: HCT-116
HCT-15 = system: HCT-15
HL-60 = system: HL-60
HOP-62 = system: HOP-62
IGROV-1 = system: IGROV-1
M14 = system: M14
MCF7 = system: MCF7
MDA-MB-231 = system: MDA-MB-231
MDA-N = system: MDA-N
NCI-H460 = system: NCI-H460
RXF 393 = system: RXF 393
SK-MEL-28 = system: SK-MEL-28
SK-MEL-5 = system: SK-MEL-5
SNB-19 = system: SNB-19
SNB-75 = system: SNB-75
T47D = system: T47D
U-251 = system: U-251
BT-549 = system: BT-549

SMILES	GI50 (CAKI-1)	GI50 (EKVX)	GI50 (HCT-116)	GI50 (HCT-15) [µM]	GI50 (HL-60)	GI50 (HOP-62)	GI50 (IGROV-1)	GI50 (M14)	GI50 (MCF7)	GI50 (MDA-MB-231)	GI50 (MDA-N)	GI50 (NCI-H460)	GI50 (RXF 393)	GI50 (SK-MEL-28)	GI50 (SK-MEL-5)	GI50 (SNB-19)	GI50 (SNB-75)	GI50 (T47D)	GI50 (U-251)	GI50 (BT-549)
O=C(NC(=O)c1ccccc1[N+](=O)[O-])Nc1ccc(Oc2ncc(Cl)cn2)c(C(F)(F)F)c1	< 0.01 µM (active)	0.126 µM (active)	0.0124 µM (active)	< 0.0126	< 0.01 µM (active)	0.0181 µM (active)	0.0213 µM (active)	< 0.0115 µM (active)	< 0.01 µM (active)	0.0371 µM (active)	< 0.01 µM (active)	< 0.01 µM (active)	< 0.01 µM (active)	< 0.0104 µM (active)	< 0.01 µM (active)	0.0218 µM (active)	< 0.01 µM (active)	22.1 µM (inactive)	< 0.0121 µM (active)	
CCN(CC)CCCNc1nc(=O)[nH]c(C)c1C(=O)Nc1ccc2c(c1)c1ccccc1n2CC	> 100 µM (inactive)	> 100 µM (inactive)	> 100 µM (inactive)	> 100	> 100 µM (inactive)	> 100 µM (inactive)	> 100 µM (inactive)	> 100 µM (inactive)	> 100 µM (inactive)	> 100 µM (inactive)	> 100 µM (inactive)		> 100 µM (inactive)	> 100 µM (inactive)	> 100 µM (inactive)	> 100 µM (inactive)	> 100 µM (inactive)	> 100 µM (inactive)	> 100 µM (inactive)	
CCC(C)C(=O)O[C@H]1C(=O)O[C@@H]2C[C@H]3C(C)=CC(=O)[C@@H](O)[C@]3(C)[C@H]3[C@@H](O)[C@H](O)[C@@]4(C)OC[C@]32[C@@H]14 (stereo partly specified)	< 0.0455 µM (active)	0.121 µM (active)	< 0.01 µM (active)	< 0.0204	0.014 µM (active)	< 0.0221 µM (active)	< 0.0191 µM (active)	< 0.0144 µM (active)	< 0.01 µM (active)	< 0.01 µM (active)	< 0.01 µM (active)	< 0.0135 µM (active)	0.015 µM (active)	< 0.01 µM (active)	< 0.0169 µM (active)	< 0.0143 µM (active)	< 0.0167 µM (active)	< 0.01 µM (active)	< 0.0171 µM (active)	
C=CCCC(=O)N1CCC(C(=O)OCC)C1=O (stereo unspecified)	> 100 µM (inactive)	> 100 µM (inactive)	> 100 µM (inactive)	> 100	> 100 µM (inactive)	> 100 µM (inactive)	> 100 µM (inactive)	> 100 µM (inactive)		> 100 µM (inactive)			> 100 µM (inactive)	> 100 µM (inactive)	> 100 µM (inactive)	> 100 µM (inactive)	> 100 µM (inactive)	> 100 µM (inactive)	> 100 µM (inactive)	> 100 µM (inactive)
CC(C)(C)OC(=O)N1N=CCC1c1ccccc1 (stereo unspecified)	> 100 µM (inactive)	> 100 µM (inactive)	> 100 µM (inactive)	> 100	> 100 µM (inactive)	> 100 µM (inactive)	> 100 µM (inactive)	> 100 µM (inactive)	> 100 µM (inactive)			> 100 µM (inactive)	> 100 µM (inactive)		> 100 µM (inactive)		> 100 µM (inactive)	> 100 µM (inactive)		
Nc1ncnc2c1nc(Cl)n2C1OC2COP(=O)(O)OC2C1O (stereo unspecified)	6.04 µM (inactive)	22.4 µM (inactive)	3.09 µM (inactive)	3.76	1.23 µM (inactive)		11 µM (inactive)	6.25 µM (inactive)	3.49 µM (inactive)		6.43 µM (inactive)	4 µM (inactive)	3.15 µM (inactive)	> 87.9 µM (inactive)	> 47.4 µM (inactive)	> 100 µM (inactive)	11.3 µM (inactive)	2.38 µM (inactive)	50.6 µM (inactive)	
O=C(NCCOC(=O)OCCNC(=O)NC1CCCCC1)NC1CCCCC1	> 100 µM (inactive)	> 100 µM (inactive)	> 100 µM (inactive)	> 100	> 100 µM (inactive)	35.6 µM (inactive)	> 100 µM (inactive)	> 100 µM (inactive)	0.834 µM (active)	15.8 µM (inactive)	> 100 µM (inactive)	> 100 µM (inactive)	72.6 µM (inactive)	> 100 µM (inactive)	> 100 µM (inactive)	> 100 µM (inactive)	0.26 µM (active)	> 100 µM (inactive)	> 100 µM (inactive)	
CC(C)(C)OC(=O)NCC(CNC(=O)OC(C)(C)C)C(N)=O	> 100 µM (inactive)	> 100 µM (inactive)	> 100 µM (inactive)	> 100	> 100 µM (inactive)	> 100 µM (inactive)	> 100 µM (inactive)	> 100 µM (inactive)	> 100 µM (inactive)	> 100 µM (inactive)		> 100 µM (inactive)	> 100 µM (inactive)	> 100 µM (inactive)	> 100 µM (inactive)	> 100 µM (inactive)		> 100 µM (inactive)	> 100 µM (inactive)	> 100 µM (inactive)
